Laboratory results: patent publication US20200069664A1, “METHODS FOR TREATING INFECTION” (Salix Pharmaceuticals, Ltd, priority 2010, published 2020)
Entries after “also recorded” stand apart in the source; their conditions may differ. Read-outs that look alike come from different tables or passages of the source.

Tests used:
S sonnei isolate [1] = test: MIC against rifaximin by agar dilution, S sonnei isolate; assay type: cell-based
Excerpt: (§1) Five enterotoxigenic E coli strains, 2 enteroaggregative E coli strains, and 1 S sonnei isolate were included in the study. The isolates had been identified previously from patients with TD acquired in Guadalajara, Mexico, during the summer of 2004 (5).

[2] = test system: enteroaggregative E coli strains; test: MIC against rifaximin by agar dilution, EAEC isolates; assay type: cell-based; conditions: 2 EAEC isolates
Excerpt: as §1

S sonnei isolate [3] = test: MMP-9 detection by gelatin zymography in S sonnei isolate after rifaximin exposure; assay type: cell-based
Experimental: Expression of matrix metalloproteinase-9 (MMP-9) was analyzed using gelatin zymography in all viable EAEC and S. sonnei isolates growing on MacConkey agar. Isolates were suspended in 1 mL of 0.1 M phosphate buffered saline (pH 7.2) and centrifuged at 1000 g for 10 minutes at 4° C. The supernatant was subjected to gelatin zymography to detect MMP-9 activity using a modified Heussen and Dowdle protocol (9). In summary, the supernatant was diluted 1:2 in a sample buffer (125 mM Tris-HCl, pH 6.8, 20% glycerol, 4% sodium dodecyl sulfate, 0.02% bromphenol blue), and 20 μL was loaded on to a 10% SDS-PAGE gel containing 1 mg/mL gelatin. Prestained standard proteins were used as molecular weight markers. After electrophoresis, gels were rinsed with incubation buffer (2.5% triton X-100, 50 mM Tris-HCl, pH 7.4, 0.02% Brij 35, 10 mM CaCl2, 2 μM ZnCl2) for 1 hour at room temperature to remove SDS. Gels were then incubated overnight at 37° C. and subsequently stained with Coomassie brilliant blue R-250 (Thermo Fisher Scientific, Inc, Rockford, Ill.). […] Matrix metalloproteinase-9 was identified among all gelatinolytic proteins by size.

[4] = test system: enterotoxigenic E coli strains; test: MIC against rifaximin by agar dilution, ETEC isolates; assay type: cell-based
Excerpt: as §1

ETEC isolates = assay type: cell-based, E coli
EAEC = test: Effect of dialyzed supernatants of treated HEp-2 cells on EAEC adherence; assay type: cell-based, E. coli; conditions: HEp-2 treated 24 h with 64 mg/ml (so in the source); chambered slides with or without HEp-2 cells, 3 h
Experimental: Supernatant dialysis. HEp-2 cells were cultured in T-175 flasks as described above. […] After 24 h, the medium was collected, loaded into regenerated cellulose dialysis tubing (cutoff, 6 to 8 kDa; Spectra/Por, Rancho Domiguez, Calif.), and dialyzed against 4 liters of PBS changed four times. Each dialysis step lasted at least 6 h and was carried out at 4° C. Dialyzed supernatants were either used immediately in adherence assays or stored at −20° C. until use.
The effect of supernatants on EAEC adherence was determined by mixing EAEC with the dialyzed media from the different antibiotic (or control) treatment groups and adding the bacteria to HEp-2 cells cultured in chambered slides or to chambered slides with no HEp-2 cells. Adherence was visualized microscopically as described above.

EAEC isolates = test: Isolate viability after rifaximin exposure, EAEC; assay type: cell-based, E coli
S sonnei isolate [5] = test: Isolate viability after rifaximin exposure, S sonnei; assay type: cell-based
HEp-2 cells = test: Cytokine array of supernatants of treated HEp-2 cells; conditions: 64 μg/ml, 24 h; Panomics array of 36 cytokines
[6] = test system: B. anthracis Sterne strain 7702; assay type: cell-based; conditions: pretreated A549 cells, vs other treatment groups
C difficile isolates = test: In vitro susceptibility of C difficile isolates (agar dilution for rifaximin, Etest for rifampin)
[7] = oral administration, healthy volunteers (Descombe et al. 1994); cited from earlier work
[8] = rifaximin 8 mg/L, exposure 4 hrs
[9] = rifaximin 8 mg/L, exposure 8 hrs
[10] = rifaximin 8 mg/L, exposure 18 hrs
[11] = rifaximin 8 mg/L, exposure 24 hrs
[12] = rifaximin 32 mg/L, exposure 4 hrs
[13] = rifaximin 32 mg/L, exposure 8 hrs
[14] = rifaximin 32 mg/L, exposure 18 hrs
[15] = rifaximin 64 mg/L, exposure 4 hrs
[16] = rifaximin 64 mg/L, exposure 8 hrs
[17] = resistance = MIC≥32 μg/mL, for rifaximin b194 says 'rifaximin alone'

## (2S,16Z,18E,20S,21S ,22R, 23R,24R,255,265,275,28E)-5,6,21,23,25 Pentahydroxy-27-methoxy-2,4,11,16,20,22,24,26-octamethyl-2,7-(epoxypentadeca-(1,11,13) trienimino) benzofuro (4,5-e) pyrido(1,2,-a) benzimidazole-1,15(2H)-dione,25-acetate [Rifaximin]
S sonnei isolate [1]
  MIC: 16 µg/mL
[2]
  MIC: 64 µg/mL
S sonnei isolate [3]; other time points and rifaximin concentrations
  MMP-9 in the S sonnei isolate: either undetectable or the isolate was not viable
S sonnei isolate [3]; rifaximin 8 mg/L for 4 hours
  MMP-9 in the S sonnei isolate: detectable
[4]; 2 ETEC isolates
  MIC: 128 µg/mL
[4]; 3 ETEC isolates
  MIC: 64 µg/mL
ETEC isolates; 4- and 8-hour exposure to rifaximin 8, 32, and 64 mg/L
  Expression of virulence factors (ST, LT, CS2/CS3, CS6) by ETEC isolates: expressed all examined virulence factors
ETEC isolates; 18 hours, rifaximin 8 mg/L
  Expression of virulence factors (ST, LT, CS2/CS3, CS6) by ETEC isolates: all virulence factors were expressed
ETEC isolates; 18 hours, rifaximin 32 mg/L
  Expression of virulence factors (ST, LT, CS2/CS3, CS6) by ETEC isolates: no factors were seen
ETEC isolates; 24 hours, rifaximin 8 mg/L
  Expression of virulence factors (ST, LT, CS2/CS3, CS6) by ETEC isolates: did not express any virulence factors
ETEC isolates; [8]
  Expression of CS2/CS3 in ETEC isolates: +
  Expression of CS6 in ETEC isolates: +
  Expression of LT in ETEC isolates: +
  Expression of ST in ETEC isolates: +
  Expression of ST/LT in ETEC isolates: +
ETEC isolates; [9]
  Expression of CS2/CS3 in ETEC isolates: +
  Expression of CS6 in ETEC isolates: +
  Expression of LT in ETEC isolates: +
  Expression of ST in ETEC isolates: +
  Expression of ST/LT in ETEC isolates: +
ETEC isolates; [10]
  Expression of CS2/CS3 in ETEC isolates: +
  Expression of CS6 in ETEC isolates: +
  Expression of LT in ETEC isolates: +
  Expression of ST in ETEC isolates: +
  Expression of ST/LT in ETEC isolates: +
ETEC isolates; [11]
  Expression of CS2/CS3 in ETEC isolates: −
  Expression of CS6 in ETEC isolates: −
  Expression of LT in ETEC isolates: −
  Expression of ST in ETEC isolates: −
  Expression of ST/LT in ETEC isolates: −
ETEC isolates; [12]
  Expression of CS2/CS3 in ETEC isolates: +
  Expression of CS6 in ETEC isolates: +
  Expression of LT in ETEC isolates: +
  Expression of ST in ETEC isolates: +
  Expression of ST/LT in ETEC isolates: +
ETEC isolates; [13]
  Expression of CS2/CS3 in ETEC isolates: +
  Expression of CS6 in ETEC isolates: +
  Expression of LT in ETEC isolates: +
  Expression of ST in ETEC isolates: +
  Expression of ST/LT in ETEC isolates: +
ETEC isolates; [14]
  Expression of CS2/CS3 in ETEC isolates: −
  Expression of CS6 in ETEC isolates: −
  Expression of LT in ETEC isolates: −
  Expression of ST in ETEC isolates: −
  Expression of ST/LT in ETEC isolates: −
ETEC isolates; [15]
  Expression of CS2/CS3 in ETEC isolates: +
  Expression of CS6 in ETEC isolates: +
  Expression of LT in ETEC isolates: +
  Expression of ST in ETEC isolates: +
  Expression of ST/LT in ETEC isolates: +
ETEC isolates; [16]
  Expression of CS2/CS3 in ETEC isolates: +
  Expression of CS6 in ETEC isolates: +
  Expression of LT in ETEC isolates: +
  Expression of ST in ETEC isolates: +
  Expression of ST/LT in ETEC isolates: +
EAEC
  Adherence of EAEC mixed with dialyzed supernatants from treated HEp-2 cells: adhered poorly; also recorded: affected EAEC adherence
EAEC isolates; rifaximin 8 mg/L for 24 hours
  EAEC viability: viable
EAEC isolates; rifaximin 8, 32, and 64 mg/L at 4, 8, and 18 hours
  EAEC viability: viable
EAEC isolates; rifaximin 32 and 64 mg/L for 24 hours
  EAEC viability: no viable isolates were recovered; also recorded: not viable
S sonnei isolate [5]; rifaximin 8 mg/L for 4, 8, 18, and 24 hours
  S sonnei viability: viable
S sonnei isolate [5]; rifaximin 32 or 64 mg/L at any time point examined
  S sonnei viability: not viable
HEp-2 cells
  Cytokines detected in supernatants of treated HEp-2 cells: detectable levels of RANTES and IL-4 only; also recorded: reduced the expression of various proinflammatory cytokines
[6]; gentamicin protection
  Internalization of B. anthracis: significant reductions
[6]
  Adherence of B. anthracis: significant reductions
C difficile isolates; 359 C difficile isolates
  MIC50: <0.01 µg/mL
  MIC90: 0.25 µg/mL
C difficile isolates; 359 C difficile isolates, listed as rifaximin
  MIC50: < 0.01 µg/mL
C difficile isolates; MIC≥32 μg/mL
  Isolates resistant to both rifampin and rifaximin, percent of 359: 2%
C difficile isolates; [17]
  Resistant isolates, number of 359: 11
  Resistant isolates, percent of 359: 3%
[7]
  Systemic absorption: negligible
